≈ marks a conversion by molar mass, not a printed value. Like-named read-outs stand apart in the source and are kept apart here.
How the values were obtained:
Escherichia coli [1] = test: Antibacterial activity (MIC) against Escherichia coli as Gram-negative bacterium; format: cell-based; conditions: Table 3, class symbols; for MIC: Escherichia coli, read-out: Antibacterial Activity (MIC) E. coli
Procedure: (§1) Some of the compounds of this invention were tested as to their antibacterial activity (MIC, mcg/ml) against Staph. aureus as Gram-positive bacterium and E. coli as Gram-negative bacterium. In the table, the antibacterial activity of 0.09 to 1.25 mcg/ml. is indicated as A1, and the antibacterial activity of more than 1.25 mcg/ml. and not more than 2.5 mcg/ml. is indicated as A2.

Escherichia coli [2] = test: as above; format: cell-based; conditions: for MBC: Table 1, bacteriocidal, read-out: Escherichia coli bacteriocidal action; for MIC: Table 1, bacteriostatic, read-out: Escherichia coli bacteriostatic action (MIC)
[3] = Acute toxicity LD50 on mouse; conditions: in vivo
in vivo = conditions: mouse
Staphylococcus aureus [4] = test: Antibacterial activity (MIC) against Staphylococcus aureus as Gram-positive bacterium; format: cell-based; conditions: for MBC: Table 1, bacteriocidal, read-out: Staphylococcus aureus bacteriocidal action; for MIC: Table 1, bacteriostatic, read-out: Staphylococcus aureus bacteriostatic action (MIC)
Staphylococcus aureus [5] = test: as above; format: cell-based; conditions: Table 3, class symbols; for MIC: Staphylococcus aureus, read-out: Antibacterial Activity (MIC) Staph. aureus
Procedure: as §1

Structure (SMILES)	MIC (Escherichia coli [1]) [µg/mL]	MIC (Staphylococcus aureus [5]) [µg/mL]	other results
Cc1ccc2nc3c(ccc4ncc(C(=O)O)c(O)c43)cc2c1 [Compound F-637]	0.09 to 1.25 (≈ 0.296 to 4.11 µM)	0.09 to 1.25 (≈ 0.296 to 4.11 µM)	MBC (Escherichia coli [2]): 1.25 µg/mL (≈ 4.11 µM); MIC (Escherichia coli [2]): 0.62 µg/mL (≈ 2.04 µM); LD50 ([3]; sc): > 3000 mg/kg; LD50 (in vivo; iv): 256 mg/kg; LD50 (in vivo; po): > 5000 mg/kg; MBC (Staphylococcus aureus [4]): 2.5 µg/mL (≈ 8.22 µM); MIC (Staphylococcus aureus [4]): 1.25 µg/mL (≈ 4.11 µM)
CC(=O)OCCNc1ccc2nc3c(ccc4ncc(C(=O)O)c(O)c43)cc2c1 [Compound F-927, Pyrido[2,3-c]-acridine-1-hydroxy-9-acetoxyethylamino-2-carboxylic acid]			Antibacterial Activity (MIC) E. coli (Escherichia coli [1]): A1 (antibacterial activity of 0.09 to 1.25 mcg/ml.); Antibacterial Activity (MIC) Staph. aureus (Staphylococcus aureus [5]): A1 (antibacterial activity of 0.09 to 1.25 mcg/ml.)
O=C(O)c1cnc2ccc3cc4cc(N(CO)CO)ccc4nc3c2c1O [Compound F-915, Pyrido[2,3-c]-acridine-1-hydroxy-9-di-(hydroxymethyl)amino-2-carboxylic acid]	0.09 to 1.25 (≈ 0.246 to 3.42 µM)	0.09 to 1.25 (≈ 0.246 to 3.42 µM)	
CCNc1cc2cc3ccccc3nc2c2c(O)c(C(=O)O)cnc12 [Compound F-856, Pyrido[2,3-c]-acridine-1-hydroxy-5-ethylamino-2-carboxylic acid]	0.09 to 1.25 (≈ 0.27 to 3.75 µM)	0.09 to 1.25 (≈ 0.27 to 3.75 µM)	
CC(=O)OCCNc1c2ccccc2nc2c1ccc1ncc(C(=O)O)c(O)c12 [Compound F-926, Pyrido[2,3-c]-acridine-1-hydrox-7-acetoxyethylamino-2-carboxylic acid]			Antibacterial Activity (MIC) E. coli (Escherichia coli [1]): A1 (antibacterial activity of 0.09 to 1.25 mcg/ml.); Antibacterial Activity (MIC) Staph. aureus (Staphylococcus aureus [5]): A1 (antibacterial activity of 0.09 to 1.25 mcg/ml.)
CS(=O)(=O)c1ccc2nc3c(ccc4ncc(C(=O)O)c(O)c43)cc2c1 [Compound F-890, Pyrido[2,3-c]-acridine-1-hydroxy-9-methylsulfonyl-2-carboxylic acid]	0.09 to 1.25 (≈ 0.244 to 3.39 µM)	0.09 to 1.25 (≈ 0.244 to 3.39 µM)	
O=C(O)c1ccc2nc3c(ccc4ncc(C(=O)O)c(O)c43)cc2c1 [Compound F-935, Pyrido[2,3-c]-1-hydroxy-2,9-dicarboxylic acid]	1.25 to 2.5 (≈ 3.74 to 7.48 µM)	1.25 to 2.5 (≈ 3.74 to 7.48 µM)	
C=Cc1c2ccccc2nc2c1ccc1ncc(C(=O)O)c(O)c12 [Compound F-690, Pyrido[2,3-c]-acridine-1-hydroxy-7-vinyl-2-carboxylic acid]	1.25 to 2.5 (≈ 3.95 to 7.9 µM)	1.25 to 2.5 (≈ 3.95 to 7.9 µM)	
O=C(O)c1cnc2c(I)cc3cc4ccccc4nc3c2c1O [Compound F-844, Pyrido[2,3-c]-acridine-1-hydroxy-5-iodo-2-carboxylic acid]	0.09 to 1.25 (≈ 0.216 to 3 µM)	0.09 to 1.25 (≈ 0.216 to 3 µM)	
Cc1cc2cc3ccccc3nc2c2c(O)c(C(=O)O)cnc12 [Compound F-632]	0.09 to 1.25 (≈ 0.296 to 4.11 µM)	0.09 to 1.25 (≈ 0.296 to 4.11 µM)	MBC (Escherichia coli [2]): 1.25 µg/mL (≈ 4.11 µM); MIC (Escherichia coli [2]): 0.62 µg/mL (≈ 2.04 µM); LD50 ([3]; sc): > 3000 mg/kg; LD50 (in vivo; iv): 253 mg/kg; LD50 (in vivo; po): > 5000 mg/kg; MBC (Staphylococcus aureus [4]): 2.5 µg/mL (≈ 8.22 µM); MIC (Staphylococcus aureus [4]): 1.25 µg/mL (≈ 4.11 µM)
CCn1cc(C(=O)O)c(=O)c2ccc(C)nc21 [Nalidixic acid, reference compound]			MBC (Escherichia coli [2]): 6.25 µg/mL (≈ 26.9 µM); MIC (Escherichia coli [2]): 6.25 µg/mL (≈ 26.9 µM); LD50 ([3]; iv): 176 mg/kg; LD50 ([3]; po): 3300 mg/kg; LD50 ([3]; sc): 500 mg/kg; MIC (Staphylococcus aureus [4]): 125 µg/mL (≈ 538 µM)
CS(=O)(=O)c1c2ccccc2nc2c1ccc1ncc(C(=O)O)c(O)c12 [Compound F-889, Pyrido[2,3-c]-acridine-1-hydroxy-7-methylsulfonyl-2-carboxylic acid]	0.09 to 1.25 (≈ 0.244 to 3.39 µM)	0.09 to 1.25 (≈ 0.244 to 3.39 µM)	
CCNc1ccc2nc3c(ccc4ncc(C(=O)O)c(O)c43)cc2c1 [Compound F-858, Pyrido[2,3-c]-acridine-1-hydroxy-9-ethylamino-2-carboxylic acid]	0.09 to 1.25 (≈ 0.27 to 3.75 µM)	0.09 to 1.25 (≈ 0.27 to 3.75 µM)	
CCCCc1c2ccccc2nc2c1ccc1ncc(C(=O)O)c(O)c12 [Compound F-634]	0.09 to 1.25 (≈ 0.26 to 3.61 µM)	0.09 to 1.25 (≈ 0.26 to 3.61 µM)	MBC (Escherichia coli [2]): 0.62 µg/mL (≈ 1.79 µM); MIC (Escherichia coli [2]): 0.62 µg/mL (≈ 1.79 µM); LD50 ([3]; sc): > 3000 mg/kg; LD50 (in vivo; iv): 215 mg/kg; LD50 (in vivo; po): > 5000 mg/kg; MBC (Staphylococcus aureus [4]): 0.25 µg/mL (≈ 0.722 µM); MIC (Staphylococcus aureus [4]): 0.25 µg/mL (≈ 0.722 µM)
O=C(O)c1cnc2ccc3c(O)c4ccccc4nc3c2c1O [Compound F-930, Pyrido[2,3-c]-1,7-dihydroxy-2-carboxylic acid]	0.09 to 1.25 (≈ 0.294 to 4.08 µM)	0.09 to 1.25 (≈ 0.294 to 4.08 µM)	
O=C(O)c1cnc2ccc3cc4cc(O)ccc4nc3c2c1O [Compound F-931, Pyrido[2,3-c]-1,9-dihydroxy-2-carboxylic acid]	0.09 to 1.25 (≈ 0.294 to 4.08 µM)	0.09 to 1.25 (≈ 0.294 to 4.08 µM)	
CSc1c2ccccc2nc2c1ccc1ncc(C(=O)O)c(O)c12 [Compound F-877, Pyrido[2,3-c]-acridine-1-hydroxy-7-methylmercapto-2-carboxylic acid]	0.09 to 1.25 (≈ 0.268 to 3.72 µM)	0.09 to 1.25 (≈ 0.268 to 3.72 µM)	
O=C(O)c1cnc2ccc3c(N(CO)CO)c4ccccc4nc3c2c1O [Compound F-914, Pyrido[2,3-c]-acridine-1-hydroxy-7-di-(hydroxymethyl)amino-2-carboxylic acid]	0.09 to 1.25 (≈ 0.246 to 3.42 µM)	0.09 to 1.25 (≈ 0.246 to 3.42 µM)	
CNc1c2ccccc2nc2c1ccc1ncc(C(=O)O)c(O)c12 [Compound F-853, Pyrido[2,3-c]-acridine-1-hydroxy-7-methylamino-2-carboxylic acid]	0.09 to 1.25 (≈ 0.282 to 3.91 µM)	0.09 to 1.25 (≈ 0.282 to 3.91 µM)	

Structure (SMILES)	MIC (Escherichia coli [1]) [µg/mL]	MIC (Staphylococcus aureus [5]) [µg/mL]	other results
O=C(O)c1cnc2ccc3c(-c4ccccc4)c4ccccc4nc3c2c1O [Compound F-633]	0.09 to 1.25 (≈ 0.246 to 3.41 µM)	0.09 to 1.25 (≈ 0.246 to 3.41 µM)	MBC (Escherichia coli [2]): 1.25 µg/mL (≈ 3.41 µM); MIC (Escherichia coli [2]): 1.25 µg/mL (≈ 3.41 µM); LD50 ([3]; sc): > 3000 mg/kg; LD50 (in vivo; iv): 245 mg/kg; LD50 (in vivo; po): > 5000 mg/kg; MBC (Staphylococcus aureus [4]): 1.25 µg/mL (≈ 3.41 µM); MIC (Staphylococcus aureus [4]): 1.25 µg/mL (≈ 3.41 µM)
O=C(O)c1cnc2ccc3cc4cc(CO)ccc4nc3c2c1O [Compound F-895, Pyrido[2,3-c]-acridine-1-hydroxy-9-hydroxymethyl-2-carboxylic acid]	0.09 to 1.25 (≈ 0.281 to 3.9 µM)	1.25 to 2.5 (≈ 3.9 to 7.81 µM)	
O=C(O)c1cnc2ccc3cc4ccc(N(CO)CO)cc4nc3c2c1O [Compound F-916, Pyrido[2,3-c]-acridine-1-hydroxy-10-di-(hydroxymethyl)amino-2-carboxylic acid]	0.09 to 1.25 (≈ 0.246 to 3.42 µM)	0.09 to 1.25 (≈ 0.246 to 3.42 µM)	
O=C(O)c1cnc2c(Br)cc3cc4ccccc4nc3c2c1O [Compound F-840, Pyrido[2,3-c]-acridine-1-hydroxy-5-bromo-2-carboxylic acid]	0.09 to 1.25 (≈ 0.244 to 3.39 µM)		
O=C(O)c1cnc2c(N(CO)CO)cc3cc4ccccc4nc3c2c1O [Compound F-913, Pyrido[2,3-c]-acridine-1-hydroxy-5-di-(hydroxymethyl)amino-2-carboxylic acid]	0.09 to 1.25 (≈ 0.246 to 3.42 µM)	0.09 to 1.25 (≈ 0.246 to 3.42 µM)	
O=C(O)c1cnc2ccc3c(-c4ccccc4Br)c4ccccc4nc3c2c1O [Compound F-777, Pyrido[2,3-c]-acridine-1-hydroxy-7-o-bromophenyl-2-carboxylic acid]	0.09 to 1.25 (≈ 0.202 to 2.81 µM)	0.09 to 1.25 (≈ 0.202 to 2.81 µM)	
O=C(O)c1cnc2c(CO)cc3cc4ccccc4nc3c2c1O [Compound F-893, Pyrido[2,3-c]-acridine-1-hydroxy-5-hydroxymethyl-2-carboxylic acid]	0.09 to 1.25 (≈ 0.281 to 3.9 µM)	1.25 to 2.5 (≈ 3.9 to 7.81 µM)	
CN(C)c1c2ccccc2nc2c1ccc1ncc(C(=O)O)c(O)c12 [Compound F-869, Pyrido[2,3-c]-acridine-1-hydroxy-7-dimethylamino-2-carboxylic acid]	0.09 to 1.25 (≈ 0.27 to 3.75 µM)	0.09 to 1.25 (≈ 0.27 to 3.75 µM)	
O=C(O)c1cnc2ccc3c(I)c4ccccc4nc3c2c1O [Compound F-845, Pyrido[2,3-c]-acridine-1-hydroxy-7-iodo-2-carboxylic acid]	0.09 to 1.25 (≈ 0.216 to 3 µM)	0.09 to 1.25 (≈ 0.216 to 3 µM)	
O=C(O)c1cnc2ccc3c(-c4ccc(I)cc4)c4ccccc4nc3c2c1O [Compound F-789, Pyrido[2,3-c]-acridine-1-hydroxy-7-p-iodophenyl-2-carboxylic acid]	0.09 to 1.25 (≈ 0.183 to 2.54 µM)	0.09 to 1.25 (≈ 0.183 to 2.54 µM)	
O=C(O)c1cnc2ccc3cc4cccc(O)c4nc3c2c1O [Compound F-932, Pyrido[2,3-c]-1,11-dihydroxy-2-carboxylic acid]	0.09 to 1.25 (≈ 0.294 to 4.08 µM)	0.09 to 1.25 (≈ 0.294 to 4.08 µM)	
Nc1c2ccccc2nc2c1ccc1ncc(C(=O)O)c(O)c12 [Compound F-849, Pyrido[2,3-c]-acridine-1-hydroxy-7-amino-2-carboxylic acid]	1.25 to 2.5 (≈ 4.09 to 8.19 µM)	1.25 to 2.5 (≈ 4.09 to 8.19 µM)	
NCc1cc2cc3ccccc3nc2c2c(O)c(C(=O)O)cnc12 [Compound F-901, Pyrido[2,3-c]-acridine-1-hydroxy-5-aminomethyl-2-carboxylic acid]	1.25 to 2.5 (≈ 3.91 to 7.83 µM)	1.25 to 2.5 (≈ 3.91 to 7.83 µM)	
C=CCc1c2ccccc2nc2c1ccc1ncc(C(=O)O)c(O)c12 [Compound F-694, Pyrido[2,3-c]-acridine-1-hydroxy-7-allyl-2-carboxylic acid]	0.09 to 1.25 (≈ 0.272 to 3.78 µM)	1.25 to 2.5 (≈ 3.78 to 7.57 µM)	
CC(=O)OCCNc1cc2cc3ccccc3nc2c2c(O)c(C(=O)O)cnc12 [Compound F-925, Pyrido[2,3-c] -acridine-1-hydroxy-5-acetoxyethylamino-2-carboxylic acid]			Antibacterial Activity (MIC) E. coli (Escherichia coli [1]): A1 (antibacterial activity of 0.09 to 1.25 mcg/ml.); Antibacterial Activity (MIC) Staph. aureus (Staphylococcus aureus [5]): A1 (antibacterial activity of 0.09 to 1.25 mcg/ml.)
O=C(O)c1cnc2ccc3cc4ccc([N+](=O)[O-])cc4nc3c2c1O [Compound F-892, Pyrido[2,3-c]-acridine-1-hydroxy-10-nitro-2-carboxylic acid]	0.09 to 1.25 (≈ 0.268 to 3.73 µM)	0.09 to 1.25 (≈ 0.268 to 3.73 µM)	
O=C(O)c1cnc2c(O)cc3cc4ccccc4nc3c2c1O [Compound F-929, Pyrido[2,3-c]-1,5-dihydroxy-2-carboxylic acid]	0.09 to 1.25 (≈ 0.294 to 4.08 µM)	0.09 to 1.25 (≈ 0.294 to 4.08 µM)	
O=C(O)c1cnc2ccc3c(Br)c4ccccc4nc3c2c1O [Compound F-841, Pyrido[2,3-c]-acridine-1-hydroxy-7-bromo-2-carboxylic acid]	0.09 to 1.25 (≈ 0.244 to 3.39 µM)		

From patent publication US4060527A, “Pyrido[2,3-c]-acridine-1-hydroxy-2-carboxylic acid derivatives” (Fuji Chemical Industries, Ltd., priority 1975, dated 1977)
